# Measured values reported in ChEMBL document CHEMBL1201862, “PubChem BioAssay data set” (2004).
# Calls of active or inactive are those of the source.
# Experiments:
# [1] = HEp-2 cell cytotoxicity, dose response, cytotoxicity control for RSV inhibitor project, HTS (AID 2410); assay type: functional; details: human respiratory syncytial virus
# [2] = system: Streptococcus sp. 'group A'; assay: growth inhibition of control SK(-) GAS strain, dose response, counter-screen for streptokinase expression inhibitor project, luminescence, kanamycin, BacTiterGlo, confirmation (AID 1900); assay type: functional, organism-based
# [3] = target: T1, Streptokinase A (Streptococcus pyogenes serotype M1, UniProt P10520); assay: S. pyogenes streptokinase expression inhibitors, potency, dose response, plasminogen activation absorbance, OD405 (AID 1914); assay type: functional, Streptococcus pyogenes M1 GAS;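 also: secreted streptokinase activity via plasminogen activation per viability signal from cell pellet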
# T1 sequence (P10520 whole entry): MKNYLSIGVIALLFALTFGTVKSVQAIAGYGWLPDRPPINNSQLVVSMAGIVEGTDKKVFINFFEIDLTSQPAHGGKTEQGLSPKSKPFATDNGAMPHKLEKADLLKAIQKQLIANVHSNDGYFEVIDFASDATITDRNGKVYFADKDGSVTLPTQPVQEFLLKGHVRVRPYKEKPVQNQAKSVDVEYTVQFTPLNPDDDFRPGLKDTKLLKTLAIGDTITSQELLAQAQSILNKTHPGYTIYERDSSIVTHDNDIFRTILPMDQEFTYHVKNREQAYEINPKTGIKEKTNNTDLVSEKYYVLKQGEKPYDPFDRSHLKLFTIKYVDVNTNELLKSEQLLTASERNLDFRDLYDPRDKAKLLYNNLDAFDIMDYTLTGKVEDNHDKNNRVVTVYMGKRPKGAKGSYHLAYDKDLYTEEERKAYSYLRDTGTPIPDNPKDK
# [4] = target: G-protein coupled receptor 55 (Homo sapiens, UniProt Q9Y2T6); assay: GPR55 antagonists blocking LPI-driven arrestin recruitment, primary screen, imaging, U2OS, beta-arrestin-GFP, LPI agonist (AID 2013); assay type: functional;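 also: antagonist potency measured as reduced agonist-driven arrestin aggregation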
# G-protein coupled receptor 55, sequence (Q9Y2T6 whole entry): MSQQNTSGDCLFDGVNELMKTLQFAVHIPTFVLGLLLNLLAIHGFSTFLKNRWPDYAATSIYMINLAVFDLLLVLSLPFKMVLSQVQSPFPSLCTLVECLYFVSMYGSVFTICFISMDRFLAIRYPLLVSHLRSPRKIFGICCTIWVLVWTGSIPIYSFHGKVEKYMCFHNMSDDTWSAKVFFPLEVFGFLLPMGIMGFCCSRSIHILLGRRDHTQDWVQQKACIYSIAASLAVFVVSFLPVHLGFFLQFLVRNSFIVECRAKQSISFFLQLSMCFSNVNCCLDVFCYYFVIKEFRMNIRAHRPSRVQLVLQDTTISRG
# [5] = system: Streptococcus; assay: Group A Streptococcus viability loss, dose response, counter-screen for streptokinase expression inhibitor project, luminescence, BacTiterGlo (AID 1915); assay type: functional, organism-based;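 also: potency for reduction of bacterial viability or growth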
# [6] = target: T2, Replicative DNA helicase DnaB (Mycobacterium tuberculosis, UniProt P9WMR3); assay: DnaB intein splicing inhibitors, dose response, biochemical, cell-free fluorescence (AID 449749); assay type: functional
# T2 sequence (P9WMR3 whole entry): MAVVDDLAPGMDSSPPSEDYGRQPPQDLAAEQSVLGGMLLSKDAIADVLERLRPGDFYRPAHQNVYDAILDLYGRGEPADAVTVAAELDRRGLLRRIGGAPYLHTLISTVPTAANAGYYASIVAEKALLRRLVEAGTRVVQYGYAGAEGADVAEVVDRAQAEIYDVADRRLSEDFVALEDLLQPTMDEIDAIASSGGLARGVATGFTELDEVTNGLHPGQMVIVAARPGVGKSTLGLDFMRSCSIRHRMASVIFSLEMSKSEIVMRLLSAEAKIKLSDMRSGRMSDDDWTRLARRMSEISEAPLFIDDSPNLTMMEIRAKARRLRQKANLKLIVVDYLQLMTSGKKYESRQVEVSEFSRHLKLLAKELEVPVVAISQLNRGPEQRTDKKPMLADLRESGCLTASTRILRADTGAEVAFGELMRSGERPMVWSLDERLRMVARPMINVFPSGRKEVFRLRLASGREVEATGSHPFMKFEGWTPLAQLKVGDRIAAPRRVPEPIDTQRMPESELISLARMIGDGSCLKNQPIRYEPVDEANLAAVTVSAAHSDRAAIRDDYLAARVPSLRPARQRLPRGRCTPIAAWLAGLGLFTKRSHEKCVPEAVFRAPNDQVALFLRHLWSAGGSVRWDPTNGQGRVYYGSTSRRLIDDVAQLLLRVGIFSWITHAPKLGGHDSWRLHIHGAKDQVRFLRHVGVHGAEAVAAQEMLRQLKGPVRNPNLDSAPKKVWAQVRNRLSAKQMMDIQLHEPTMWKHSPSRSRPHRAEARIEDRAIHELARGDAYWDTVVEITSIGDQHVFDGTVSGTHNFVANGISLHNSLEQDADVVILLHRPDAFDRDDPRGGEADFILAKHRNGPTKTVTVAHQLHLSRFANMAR
# [7] = target: T3, Protein RecA (Mycobacterium tuberculosis, UniProt P9WHJ3); assay: Fluorescence Cell-Free Homogeneous Dose Retest to Identify Inhibitors of RecA-Intein Splicing Activity. [Related pubchem assays (depositor defined):AID2097, AID2223, AID489010, AID492950]; assay type: functional
# T3 sequence (P9WHJ3 whole entry): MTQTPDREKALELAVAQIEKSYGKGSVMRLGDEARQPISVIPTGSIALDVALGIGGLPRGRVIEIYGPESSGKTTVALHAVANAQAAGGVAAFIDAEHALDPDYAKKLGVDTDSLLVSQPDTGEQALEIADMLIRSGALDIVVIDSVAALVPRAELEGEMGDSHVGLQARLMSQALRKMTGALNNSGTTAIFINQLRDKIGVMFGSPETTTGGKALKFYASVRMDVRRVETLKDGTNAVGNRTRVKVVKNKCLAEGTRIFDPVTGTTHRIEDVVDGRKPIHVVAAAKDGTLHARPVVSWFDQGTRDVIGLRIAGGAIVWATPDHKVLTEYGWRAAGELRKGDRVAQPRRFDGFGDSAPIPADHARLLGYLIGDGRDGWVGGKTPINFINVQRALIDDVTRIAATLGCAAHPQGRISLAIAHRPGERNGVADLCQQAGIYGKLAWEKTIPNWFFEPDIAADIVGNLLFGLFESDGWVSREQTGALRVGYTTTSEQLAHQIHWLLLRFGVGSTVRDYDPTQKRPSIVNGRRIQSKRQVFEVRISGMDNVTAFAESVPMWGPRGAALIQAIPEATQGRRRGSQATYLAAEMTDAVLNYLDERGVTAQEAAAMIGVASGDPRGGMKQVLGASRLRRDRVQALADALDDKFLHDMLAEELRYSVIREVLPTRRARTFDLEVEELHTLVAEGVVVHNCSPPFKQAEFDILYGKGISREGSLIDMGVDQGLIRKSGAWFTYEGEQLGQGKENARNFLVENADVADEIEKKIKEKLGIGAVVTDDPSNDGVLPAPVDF
# [8] = target: Hexokinase (Trypanosoma brucei, UniProt Q38C41); assay: Confirmation assay for inhibitors of Trypanosoma brucei hexokinase 1-Analogue-first series. [Related pubchem assays (depositor defined):AID1430, AID1632, AID2516, AID2560, AID2579, AID2600, AID449725, AID492951]; assay type: functional
# Hexokinase, sequence (Q38C41 whole entry): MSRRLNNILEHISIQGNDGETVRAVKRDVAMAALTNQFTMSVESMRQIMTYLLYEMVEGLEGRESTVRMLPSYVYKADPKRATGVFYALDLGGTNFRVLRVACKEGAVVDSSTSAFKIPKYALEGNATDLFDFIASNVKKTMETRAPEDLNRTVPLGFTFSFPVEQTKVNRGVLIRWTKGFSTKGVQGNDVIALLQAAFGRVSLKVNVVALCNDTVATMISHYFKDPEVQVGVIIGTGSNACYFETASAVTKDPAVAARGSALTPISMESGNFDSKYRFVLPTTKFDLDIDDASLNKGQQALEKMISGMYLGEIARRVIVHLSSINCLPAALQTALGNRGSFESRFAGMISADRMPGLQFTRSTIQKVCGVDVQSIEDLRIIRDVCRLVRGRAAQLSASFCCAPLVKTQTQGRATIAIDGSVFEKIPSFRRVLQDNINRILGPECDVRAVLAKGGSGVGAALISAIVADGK
# [9] = target: Glucose-6-phosphate 1-dehydrogenase (Homo sapiens, UniProt P11413); assay: human G6PD enzyme inhibitors, dose response, selectivity assay for P. falciparum G6PD inhibitor project, biochemical, fluorescence (AID 504792); assay type: functional
# Glucose-6-phosphate 1-dehydrogenase, sequence (P11413 whole entry, the tested form may be a part): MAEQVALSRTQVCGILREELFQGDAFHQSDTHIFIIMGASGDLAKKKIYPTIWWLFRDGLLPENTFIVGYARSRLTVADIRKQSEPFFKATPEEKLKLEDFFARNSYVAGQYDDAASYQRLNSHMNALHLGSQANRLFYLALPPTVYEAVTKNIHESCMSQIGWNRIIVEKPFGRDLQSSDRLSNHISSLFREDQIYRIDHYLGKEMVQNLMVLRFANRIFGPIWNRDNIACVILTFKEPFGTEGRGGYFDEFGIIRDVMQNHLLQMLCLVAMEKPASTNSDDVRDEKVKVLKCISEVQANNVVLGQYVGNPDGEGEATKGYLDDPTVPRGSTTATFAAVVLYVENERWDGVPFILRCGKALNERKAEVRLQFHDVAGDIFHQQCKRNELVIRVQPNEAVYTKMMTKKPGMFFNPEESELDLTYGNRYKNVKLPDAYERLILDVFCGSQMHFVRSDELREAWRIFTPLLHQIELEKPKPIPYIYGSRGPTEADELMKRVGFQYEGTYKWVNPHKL
# [10] = Fluorescence-based cell-based high throughput dose response assay for inhibitors of the interaction of nucleotide-binding oligomerization domain containing 2 (NOD2) and the receptor-interacting serine-threonine kinase 2 (RIPK2).; assay type: functional; details: Homo sapiens
# [11] = target: Mu-type opioid receptor (Homo sapiens, UniProt P35372); assay: SAR Analysis of Agonists of the MOR Receptor using an Image-Based Assay - Set 3. [Related pubchem assays (depositor defined):AID1777, AID1785, AID1786, AID1966, AID2133, AID2136, AID2284, AID2285, AID2352]; assay type: functional
# Mu-type opioid receptor, sequence (P35372 whole entry): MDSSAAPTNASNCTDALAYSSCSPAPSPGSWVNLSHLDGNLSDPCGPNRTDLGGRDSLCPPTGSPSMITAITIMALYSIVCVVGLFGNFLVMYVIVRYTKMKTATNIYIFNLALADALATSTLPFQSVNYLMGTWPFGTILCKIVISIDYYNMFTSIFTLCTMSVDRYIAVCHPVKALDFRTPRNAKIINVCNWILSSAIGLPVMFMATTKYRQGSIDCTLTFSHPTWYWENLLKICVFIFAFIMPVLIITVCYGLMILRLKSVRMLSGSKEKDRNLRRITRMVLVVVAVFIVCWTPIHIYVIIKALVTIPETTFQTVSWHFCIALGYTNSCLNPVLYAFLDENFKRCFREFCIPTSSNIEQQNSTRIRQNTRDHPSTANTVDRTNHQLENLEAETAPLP
# [12] = target: Delta-type opioid receptor (Homo sapiens, UniProt P41143); assay: SAR Analysis of Agonists of the DOR Receptor using an Image-Based Assay - Set 3. [Related pubchem assays (depositor defined):AID1777, AID1786]; assay type: functional
# Delta-type opioid receptor, sequence (P41143 whole entry): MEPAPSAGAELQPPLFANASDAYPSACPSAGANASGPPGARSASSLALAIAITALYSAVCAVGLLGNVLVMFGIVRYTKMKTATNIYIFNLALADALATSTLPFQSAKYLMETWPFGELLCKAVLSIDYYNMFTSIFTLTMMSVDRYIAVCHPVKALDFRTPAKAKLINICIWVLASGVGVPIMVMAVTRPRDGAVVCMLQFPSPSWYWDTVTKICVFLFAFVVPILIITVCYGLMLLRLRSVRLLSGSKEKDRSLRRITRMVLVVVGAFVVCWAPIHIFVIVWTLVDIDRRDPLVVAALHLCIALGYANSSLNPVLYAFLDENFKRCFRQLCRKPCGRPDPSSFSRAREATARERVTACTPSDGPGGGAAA
# [13] = target: Kappa-type opioid receptor (Homo sapiens, UniProt P41145); assay: SAR analysis of small molecule agonists of the kappa opioid receptor via a luminescent beta-arrestin assay - Set 3. [Related pubchem assays (depositor defined):AID1777, AID1785, AID1786, AID1966, AID2133, AID2136, AID2284, AID2500]; assay type: functional
# Kappa-type opioid receptor, sequence (P41145 whole entry): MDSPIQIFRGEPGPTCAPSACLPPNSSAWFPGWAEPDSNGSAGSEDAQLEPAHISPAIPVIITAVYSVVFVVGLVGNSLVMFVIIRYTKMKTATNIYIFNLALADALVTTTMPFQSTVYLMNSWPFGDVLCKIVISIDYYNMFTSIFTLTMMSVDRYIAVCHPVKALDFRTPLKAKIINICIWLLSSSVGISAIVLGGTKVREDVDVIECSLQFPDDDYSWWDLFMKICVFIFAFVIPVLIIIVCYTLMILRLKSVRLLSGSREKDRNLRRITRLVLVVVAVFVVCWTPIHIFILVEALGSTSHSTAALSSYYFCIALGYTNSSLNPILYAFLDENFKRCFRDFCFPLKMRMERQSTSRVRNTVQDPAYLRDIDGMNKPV
# [14] = inhibitors of firefly luciferase expression or activity, dose response, H4 neuroglioma cells, luminescence (AID 1990); assay type: functional, cell-based
# [15] = luciferase reporter signal reduction – luminescence, H4-C neuroglioblastoma cells, dose response (AID 2458); assay type: functional, cell-based;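 also: H4 neuroglioblastoma cells stably carrying a luciferase reporter gene fusion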
# [16] = cells; assay type: functional, cell-based
# [17] = Luminescence Cell-Based Dose Response HTS to Identify Inhibitors of 5'UTR Stem-Loop Driven Prion Protein mRNA Translation in H4 Neuroglioblastoma Cells. [Related pubchem assays: 1827 (Project Summary), 1813 (Primary HTS)]; assay type: functional
# [18] = inhibitors of SNCA 5'UTR-driven reporter translation, confirmation, H4 neuroglioma cells, luminescence (AID 1988); assay type: functional, cell-based
# [19] = inhibitors of SNCA 5'UTR-driven translation, confirmation, luminescence, H4 neuroglioblastoma cells, dose confirmation (AID 2454); assay type: functional, cell-based;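 also: H4 neuroglioblastoma cells carrying an alpha-synuclein 5'UTR luciferase reporter; potency for inhibition of the luciferase signal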
# [20] = target: Eukaryotic translation initiation factor 4H (Homo sapiens, UniProt Q15056); assay: eIF4H inhibition in translation initiation, SAR follow-up (AID 435011); assay type: functional
# [21] = cytotoxicity in HEK-293T cells, dose response, cytotoxicity control for TCR NF-kB inhibitor project, luminescence, T-cell screen hits (AID 489026); assay type: functional, cell-based;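 also: cells exposed to compound about 14 hours before the viability readout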
# [22] = target: T4, Mannose-6-phosphate isomerase (Homo sapiens, UniProt P34949); assay: PMI enzyme inhibitors, confirmation, biochemical, fluorescence intensity (AID 1535)
# T4 sequence (P34949 whole entry): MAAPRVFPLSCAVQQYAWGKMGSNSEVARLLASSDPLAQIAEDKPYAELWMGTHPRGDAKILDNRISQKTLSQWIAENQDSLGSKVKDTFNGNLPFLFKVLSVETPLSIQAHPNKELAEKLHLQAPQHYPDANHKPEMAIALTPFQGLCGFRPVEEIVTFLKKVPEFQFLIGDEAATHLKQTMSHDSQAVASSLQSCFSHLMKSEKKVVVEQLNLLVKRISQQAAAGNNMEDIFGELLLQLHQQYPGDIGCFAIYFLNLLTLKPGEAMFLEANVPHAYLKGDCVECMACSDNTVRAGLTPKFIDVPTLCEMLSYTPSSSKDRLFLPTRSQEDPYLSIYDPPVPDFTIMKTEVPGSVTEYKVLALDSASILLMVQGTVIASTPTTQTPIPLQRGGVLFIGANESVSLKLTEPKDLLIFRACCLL
# [23] = target: Phosphomannomutase 2 (Homo sapiens, UniProt O15305); assay: Counter screen SAR assay for PMM2 inhibitors via a fluorescence intensity assay. [Related pubchem assays (depositor defined):AID1545, AID1574]
# Phosphomannomutase 2, sequence (O15305 whole entry): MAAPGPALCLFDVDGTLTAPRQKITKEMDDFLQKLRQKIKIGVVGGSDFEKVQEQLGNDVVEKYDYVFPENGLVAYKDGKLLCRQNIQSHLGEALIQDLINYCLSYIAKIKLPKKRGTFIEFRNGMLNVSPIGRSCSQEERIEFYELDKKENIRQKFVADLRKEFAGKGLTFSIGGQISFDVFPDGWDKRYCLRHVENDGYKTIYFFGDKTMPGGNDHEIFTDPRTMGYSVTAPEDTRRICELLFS
# [24] = target: Intestinal-type alkaline phosphatase (Homo sapiens, UniProt P09923); assay: Dose Response confirmation of uHTS hits from a small molecule inhibitors of human intestinal alkaline phosphatase via a luminescent assay. [Related pubchem assays (depositor defined):AID2544, AID2574]; assay type: functional
# Intestinal-type alkaline phosphatase, sequence (P09923 whole entry): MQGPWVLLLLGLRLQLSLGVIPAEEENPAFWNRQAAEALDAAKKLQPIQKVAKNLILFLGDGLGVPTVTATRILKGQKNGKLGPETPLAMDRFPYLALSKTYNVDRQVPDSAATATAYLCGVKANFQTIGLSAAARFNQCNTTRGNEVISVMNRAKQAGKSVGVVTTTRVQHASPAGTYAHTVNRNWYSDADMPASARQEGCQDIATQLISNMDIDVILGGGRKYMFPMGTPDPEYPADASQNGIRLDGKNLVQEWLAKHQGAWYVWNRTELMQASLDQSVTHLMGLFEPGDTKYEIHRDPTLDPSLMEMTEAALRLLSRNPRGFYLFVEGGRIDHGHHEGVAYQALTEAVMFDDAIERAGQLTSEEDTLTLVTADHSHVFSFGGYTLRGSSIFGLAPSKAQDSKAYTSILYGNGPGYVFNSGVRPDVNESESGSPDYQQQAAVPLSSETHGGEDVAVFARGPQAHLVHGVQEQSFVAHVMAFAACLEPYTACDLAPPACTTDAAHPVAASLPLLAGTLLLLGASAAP
# [25] = system: H9c2; assay: cells; assay type: functional, cell-based; details: Rattus norvegicus, H9c2, Myocardium;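 also: confirmatory concentration-response retest of ultra-high-throughput screening hits for modulation of myocardial damage; cell death induced by hydrogen peroxide oxidative stress; compound pretreatment for 60 min then peroxide exposure for 2 h; potency is for protecting the cells against peroxide damage rather than for killing them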
# [26] = target: Voltage-dependent T-type calcium channel subunit alpha-1H (Homo sapiens, UniProt O95180); assay: Cav3.2 T-type channel inhibitors, cell-based, synthetic library set 1, calcium flux (AID 493022); assay type: functional
# [27] = target: Alkaline phosphatase, placental type (Homo sapiens, UniProt P05187); assay: PLAP enzyme inhibitors, confirmation, biochemical, luminescence (AID 1512); assay type: functional
# Alkaline phosphatase, placental type, sequence (P05187 whole entry): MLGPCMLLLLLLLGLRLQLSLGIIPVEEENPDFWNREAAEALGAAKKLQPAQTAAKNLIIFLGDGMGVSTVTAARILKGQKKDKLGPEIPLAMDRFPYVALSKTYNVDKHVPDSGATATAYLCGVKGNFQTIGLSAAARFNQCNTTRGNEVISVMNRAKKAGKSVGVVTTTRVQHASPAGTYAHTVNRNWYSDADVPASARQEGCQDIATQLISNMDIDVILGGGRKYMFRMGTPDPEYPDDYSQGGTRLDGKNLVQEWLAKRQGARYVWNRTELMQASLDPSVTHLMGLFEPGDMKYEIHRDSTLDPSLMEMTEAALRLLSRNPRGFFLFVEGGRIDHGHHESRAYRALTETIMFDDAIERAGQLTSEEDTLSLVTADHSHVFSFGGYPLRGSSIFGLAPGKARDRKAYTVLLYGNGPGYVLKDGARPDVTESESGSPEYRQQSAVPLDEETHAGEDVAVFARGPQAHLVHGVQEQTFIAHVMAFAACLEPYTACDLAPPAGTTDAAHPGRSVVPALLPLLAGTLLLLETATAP
# [28] = target: T5, Alkaline phosphatase, tissue-nonspecific isozyme (Homo sapiens, UniProt P05186); assay: human TNAP enzyme inhibitors, SAR follow-up, biochemical, luminescent, dose response (AID 1056)
# T5 sequence (P05186 whole entry): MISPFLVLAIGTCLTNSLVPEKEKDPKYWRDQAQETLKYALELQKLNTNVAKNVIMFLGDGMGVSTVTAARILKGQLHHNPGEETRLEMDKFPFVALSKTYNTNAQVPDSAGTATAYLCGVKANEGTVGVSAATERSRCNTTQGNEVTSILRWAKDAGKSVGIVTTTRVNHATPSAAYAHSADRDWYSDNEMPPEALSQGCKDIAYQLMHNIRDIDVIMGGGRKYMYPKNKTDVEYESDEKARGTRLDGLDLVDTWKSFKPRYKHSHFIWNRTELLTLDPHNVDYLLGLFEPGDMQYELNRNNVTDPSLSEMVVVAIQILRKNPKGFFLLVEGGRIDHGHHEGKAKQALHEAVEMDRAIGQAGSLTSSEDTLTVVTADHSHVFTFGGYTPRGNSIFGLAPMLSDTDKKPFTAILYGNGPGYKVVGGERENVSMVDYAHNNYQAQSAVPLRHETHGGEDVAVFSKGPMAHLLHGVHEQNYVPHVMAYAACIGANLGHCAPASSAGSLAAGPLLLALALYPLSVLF
compound,measurement,setting,value
c1ccc(-c2nc(N3CCCCCC3)nc(-n3ccnc3)n2)cc1,CC50,[1],20.1 µM (active)
same,EC50,[2],4.08 µM (active)
same,EC50,[3],> 150 µM (not active)
same,IC50,[4],3.77 µM (active)
same,EC50,[5],7.9 µM (active)
same,AC50,[6],63.8 µM (active)
same,EC50,[7],> 380 µM (inactive)
O=C(Cn1sc2ccccc2c1=O)Nc1ccc(Br)cc1,IC50,[8],> 25 µM (inactive)
same,IC50,[9],24.2 µM (inactive)
same,IC50,[10],10.2 µM (inactive)
Cc1ccccc1CSc1nnc(-c2ccccn2)n1Cc1cccs1,EC50,[11],> 32 µM (inactive)
same,EC50,[12],> 32 µM (inactive)
same,EC50,[13],14.7 µM (inactive)
Cc1ccc(N2C(=O)c3cccc4c(N)ccc(c34)C2=O)c2cccnc12,EC50,[14],< 0.1 µM (active)
same,EC50,[15],0.111 µM (active)
same,EC50,[16],0.101 µM (active)
same,EC50,[17],< 0.1 µM (active)
same,EC50,[18],< 0.1 µM (active)
same,EC50,[19],0.124 µM (active)
same,IC50,[20],> 100 µM (inactive)
same,IC50,[21],> 80 µM (inactive)
Clc1nss/c1=N\C1CCC1,IC50,[22],15.6 µM (active)
same,IC50,[23],76.3 µM (active)
CC(=O)CCc1ccc(Oc2nc(-c3cccnc3)nc3ccccc23)cc1,IC50,[24],> 100 µM (inactive)
same,IC50,[25],> 79 µM (inactive)
O=C(COc1ccc(F)cc1Cl)Nc1nnc(-c2ccc3c(c2)CCCC3)o1,EC50,[26],10 µM (active)
O=c1c2[nH]c3ccc(F)cc3c2ncn1CCc1ccc(O)c(O)c1,IC50,[27],1.04 µM (active)
same,IC50,[28],0.253 µM (active)
